Results on 20 molecules are retold here after EPA's ToxValDB 9.5.

Where “and” joins values, the source holds several entries; their conditions need not be identical. Equal values may be shown once.

Data set [1] has as its system Rattus norvegicus.
Data set [2] deals with Rattus norvegicus. To be noted: oral.
For data set [3], the system named is Rattus norvegicus. The conditions noted are these: oral. The source holds these as a separate data set.
Data set [4] has as its system Rattus norvegicus. The conditions noted are these: for LEL: uterotrophic, Active.
Data set [5] concerns Rattus norvegicus. To be noted: oral. This is another data set of the same source.
The test system of data set [6] is Rattus norvegicus. To be noted: oral. The source holds these as a separate data set.
In data set [7] the test system is Rattus norvegicus. The conditions noted are these: repeat dose other; oral.
Data set [8] relates to Canidae. To be noted: chronic; duration: 6 months; oral; diet; M/F; Dog Other; Organ weight changes (adrenal and kidney).
The subject of data set [9] is Rattus norvegicus. The conditions noted are these: subchronic; oral; gavage; M/F; Sprague-Dawley; Body Weight Changes: decrease + Blood Chemistry: BUN increase, Cho increase, Glu increase, TSH increase, T4 decrease, , LH increase, , ….
The mark [10] stands for this setting: reproduction developmental, M/F, degenerative cardiomyopathy.
Setting [11] is: subchronic, duration: 90 days, diet, M/F, reduced hemoglobin concentration, lowered hematocrits, altered organ weight.
Setting [12] is: subchronic, duration: 90 days, diet, M/F, reduced weight gain, food consumption increased relative liver weight.
Where [13] appears, read: duration: 2 years, feed, M/F, Crl:CD(SD), reduced weight gain.
The mark [14] stands for this setting: short-term, duration: 20 days, M/F, rachitic bone.

For the molecule `CCOP(=S)(OCC)Oc1cc(C)nc(C(C)C)n1` [Diazinon], the NOAEL came to 0.065 mg/kg-day in data set [1] (chronic, duration: 98 weeks, oral, diet, M/F, Sprague-Dawley, neurological); 0.6 mg/kg-day in data set [1] (chronic, duration: 92 days, oral, diet, F, Wistar, neurological); 1.57 mg/m3 in [1] (short-term, duration: 3 weeks, inhalation, nose only, M/F, albino, neurological); 0.09 mg/kg-day in [2] (subchronic, duration: 42 days, diet, Blood: Decreased cholinesterase activity).
In turn, `O=S(=O)(c1ccccc1)c1ccccc1` [Diphenylsulfone] came in with an NOAEL in [3] (subchronic, duration: 13 weeks, diet, M) of 8 mg/kg-day.
As to `CCCN(CCC)C(=O)SCC` [EPTC], the NOEL in [4] (Hershberger, duration: 10 days, oral, gavage, Sprague-Dawley, anti-androgenic + no effect on PPS, AST or thyroid / decreasing trend significant for LABC) amounted to 125 mg/kg-day; in data set [2] (reproduction developmental, diet, Heart: Degenerative cardiomyopathy) it was 2.5 mg/kg-day; in [5] (setting [10]), 2.5 mg/kg-day. This molecule also returned an LEL in [5] (setting [10]) of 10 mg/kg-day.
`Oc1c(Cl)cc(Cl)c2cccnc12.Oc1c(Cl)ccc2cccnc12.Oc1ccc(Cl)c2cccnc12` [Halquinols] came in with a no-observed-adverse-effect level (NOAEL) in [6] (chronic, duration: 1 years, Histopathological changes in the kidney) of 15 mg/kg-day.
Take `CCCN(CCC)c1c([N+](=O)[O-])cc(C(C)C)cc1[N+](=O)[O-]` [Isopropalin]: the NOEL in [2] (subchronic, duration: 90 days, diet, Blood: Hematological effects + Organs, unspecified: Altered weights) came out at 15 mg/kg-day. In data set [5] (setting [11]), this molecule came in with an LEL of 72 mg/kg-day and an NOEL of 15 mg/kg-day.
Molecule `C=C(C)C(=O)OC` [Methyl methacrylate] returned an NOEL in data set [2] (chronic, duration: 24 months, drinking water, Kidney: Increased relative weight) of 7.5 mg/kg-day. This molecule returned an NOAEL in [5] (chronic, drinking water, M/F, no effects) of 136 mg/kg-day.
In data set [3] (short-term, duration: 28 days, gavage, M/F, CD, Hematologic, Immune), `CNc1ccccc1` [N-Methylaniline] yielded an NOAEL of 5 mg/kg-day.
The molecule `CCCCN(CC)C(=O)SCCC` [Pebulate] had an NOEL in data set [2] (subchronic, diet, Blood: Increased clotting time) of 5 mg/kg-day.
On to `Brc1cc(-c2ccc(Br)c(Br)c2Br)cc(Br)c1Br` [Polybrominated biphenyls (PBB)], for which, in [2] (chronic, duration: 25 weeks, gavage, Liver: Increased weight + Liver: Lesions), the LOAEL stood at 0.07 mg/kg-day.
`CCCN(CC1CC1)c1c([N+](=O)[O-])cc(C(F)(F)F)cc1[N+](=O)[O-]` [Profluralin] gave an NOEL in [2] (subchronic, diet, None Observed) of 3 mg/kg-day.
As for `CC(C)N(C(=O)CCl)c1ccccc1` [Propachlor], the NOEL in data set [2] (subchronic, duration: 90 days, diet, Whole body: Decreased weight gain) is 13.3 mg/kg-day; in data set [5] (setting [12]) it was 13.3 mg/kg-day. Besides, the LEL in [5] (setting [12]) was found to be 133 mg/kg-day.
In turn, `N#CCC#N` [Propanedinitrile] yielded an NOAEL in data set [3] (subchronic, duration: 90 days, gavage, M/F, Crl:CD(SD) BR, hepatic) of 0.4 mg/kg-day.
With `[Na+].[O]=[V](=[O])[O-]` [Sodium metavanadate], the NOAEL in data set [2] (subchronic, duration: 3 months, drinking water, Kidney: Impaired function) amounted to 1.52 mg/kg-day; in [7] it was 0.21 mg/kg-day. Besides, the LOAEL in data set [7] was determined as 2.1 mg/kg-day.
For `CN[C@@H]1[C@H](O[C@H]2[C@H](O[C@H]3[C@H](O)[C@@H](O)[C@H](N=C(N)N)[C@@H](O)[C@@H]3N=C(N)N)O[C@@H](C)[C@]2(O)C=O)O[C@@H](CO)[C@H](O)[C@H]1O` [Streptomycin A], in data set [6] (setting [13]), the LOEL was 10 mg/kg-day and the NOEL turned out to be 5 mg/kg-day.
With `[Cl-].[Cl-].[Sr+2]` [Strontium chloride], the NOAEL in data set [7] is 263 mg/kg-day.
`[Sr]` [Strontium]: the NOAEL in [1] (short-term, duration: 20 days, oral, diet, F, musculoskeletal) was determined as 140 mg/kg-day; in data set [2] (short-term, duration: 20 days, drinking water, Bone: Rachitic changes), 190 mg/kg-day; in data set [5] (setting [14]), 190 mg/kg-day. In addition, the LOAEL in data set [5] (setting [14]) stood at 380 mg/kg-day.
Consider `Oc1cc(Cl)ccc1Oc1ccc(Cl)cc1Cl` [Triclosan], for which the LEL in data set [4] (duration: 3 days, oral) is 4.69 mg/kg-day and 7.5 mg/kg-day; in data set [4] (duration: 20 days, oral) it was 150 mg/kg-day. The molecule further showed an NOEL in data set [2] (short-term, duration: 4 weeks, Whole body: Decreased weight) of 500 mg/kg-day.
With `C=CC1(C)OC(=O)N(c2cc(Cl)cc(Cl)c2)C1=O` (stereo not given) [Vinclozolin], the NOEL in data set [4] (Hershberger, duration: 7 days, injection, subcutaneous, Wistar, Neither + significant delay in PPS and AST / epididymal wt reduced at 30 mg/kg / serum LH decreased at 10 mg/kg / increase in …) was 30 mg/kg-day; in data set [4] (Hershberger, duration: 10 days, oral, gavage, Wistar, active + Antiandrogenic + anti-androgenic + ISR significant delay in PPS at 10 mg/kg / Monossori et al. significant delay in PPS and AST…), 30 mg/kg-day and 10 mg/kg-day; in data set [8], 2.5 mg/kg-day; in data set [9] it was under 3.12 mg/kg-day. Besides, the LOEL in [4] (Hershberger, duration: 10 days, oral, gavage, wistar, active + Antiandrogenic + anti-androgenic + ISR significant delay in PPS at 10 mg/kg / Monossori et al. significant delay in PPS and AST…) was 10 mg/kg-day and 30 mg/kg-day. The LEL in [8] came to 7.5 mg/kg-day.
Regarding `[PH]=[Zn].[PH]=[Zn].[Zn]` [Zinc phosphide (Zn3P2)], the LOAEL in data set [2] (subchronic, duration: 13 weeks, diet, Whole body: Decreased food intake + Whole body: Decreased weight) turned out to be 3.48 mg/kg-day; in data set [5] (subchronic, F, reduced food intake and body weight), 3.48 mg/kg-day.
Regarding `CCCCCC` [n-Hexane], the LOAEL in data set [3] (subchronic, duration: 8 weeks, gavage, M, Wistar, Nervous) is 785 mg/kg-day.

For orientation: NOAEL means the highest tested level that showed no adverse finding. By LOAEL is commonly meant the lowest dose or exposure tested at which an adverse effect was seen.
